The source made the active and inactive calls.
Experiments:
Type in all cases: functional, organism-based
Mus musculus [1] = experiment: Anti-NASH activity in CCl4-induced nonalcoholic steatohepatitis C57BL mouse assessed as reduction in liver lobular inflammation at 60 mg/kg checked in presence of 30 to 100 mg/kg JBP485 by H and E staining based assay
Mus musculus [2] = experiment: Anti-NASH activity in CCl4-induced nonalcoholic steatohepatitis C57BL mouse at 60 mg/kg checked in presence of 30 to 100 mg/kg JBP485 by Oil red-O staining based assay
Mus musculus [3] = experiment: Anti-NASH activity in CCl4-induced nonalcoholic steatohepatitis C57BL mouse assessed as decrease in IFN expression at 60 mg/kg checked in presence of JBP485 by flow cytometry; details: time 14.0 day
Mus musculus [4] = experiment: Anti-NASH activity in CCl4-induced nonalcoholic steatohepatitis C57BL mouse assessed as reduction in liver ballooning degeneration at 60 mg/kg checked in presence of 30 to 100 mg/kg JBP485 by H and E staining based assay
Mus musculus [5] = experiment: Anti-NASH activity in CCl4-induced nonalcoholic steatohepatitis C57BL mouse assessed as reduction in serum AST level at 60 mg/kg checked in presence of 30 to 100 mg/kg JBP485
Mus musculus [6] = experiment: Anti-NASH activity in CCl4-induced nonalcoholic steatohepatitis C57BL mouse assessed as reduction in total cholesterol level at 60 mg/kg checked in presence of JBP485
Mus musculus [7] = experiment: Anti-NASH activity in CCl4-induced nonalcoholic steatohepatitis C57BL mouse assessed as reduction in liver index at 60 mg/kg checked in presence of 30 to 100 mg/kg JBP485
Mus musculus [8] = experiment: Anti-NASH activity in CCl4-induced nonalcoholic steatohepatitis C57BL mouse assessed as reduction in total cholesterol level at 60 mg/kg
Mus musculus [9] = experiment: Anti-NASH activity in CCl4-induced nonalcoholic steatohepatitis C57BL mouse assessed as reduction in triglyceride level at 60 mg/kg checked in presence of JBP485
Mus musculus [10] = experiment: Anti-NASH activity in CCl4-induced nonalcoholic steatohepatitis C57BL mouse assessed as decrease in IL-2 expression at 60 mg/kg checked in presence of JBP485 by flow cytometry; details: time 14.0 day
Mus musculus [11] = experiment: Anti-NASH activity in CCl4-induced nonalcoholic steatohepatitis C57BL mouse assessed as reduction in serum ALT level at 60 mg/kg checked in presence of 30 to 100 mg/kg JBP485
Mus musculus [12] = experiment: Anti-NASH activity in CCl4-induced nonalcoholic steatohepatitis C57BL mouse assessed as reduction in steatosis at 60 mg/kg by H and E staining based assay
Mus musculus [13] = experiment: Anti-NASH activity in CCl4-induced nonalcoholic steatohepatitis C57BL mouse assessed as reduction in LDH level at 60 mg/kg checked in presence of JBP485
Mus musculus [14] = experiment: Anti-NASH activity in CCl4-induced nonalcoholic steatohepatitis C57BL mouse assessed as reduction in steatosis at 60 mg/kg checked in presence of 30 to 100 mg/kg JBP485 by H and E staining based assay
Mus musculus [15] = experiment: Anti-NASH activity in CCl4-induced nonalcoholic steatohepatitis C57BL mouse at 60 mg/kg by Oil red-O staining based assay
Mus musculus [16] = experiment: Anti-NASH activity in CCl4-induced nonalcoholic steatohepatitis C57BL mouse assessed as reduction in malondialdehyde level at 60 mg/kg checked in presence of JBP485
Mus musculus [17] = experiment: Anti-NASH activity in CCl4-induced nonalcoholic steatohepatitis C57BL mouse assessed as reduction in liver ballooning degeneration at 60 mg/kg by H and E staining based assay
Mus musculus [18] = experiment: Anti-NASH activity in CCl4-induced nonalcoholic steatohepatitis C57BL mouse assessed as reduction in liver lobular inflammation at 60 mg/kg by H and E staining based assay
Mus musculus [19] = experiment: Anti-NASH activity in CCl4-induced nonalcoholic steatohepatitis C57BL mouse assessed as reduction in malondialdehyde level at 60 mg/kg
Mus musculus [20] = experiment: Anti-NASH activity in CCl4-induced nonalcoholic steatohepatitis C57BL mouse assessed as decrease in IL-17A expression at 60 mg/kg checked in presence of JBP485 by flow cytometry; details: time 14.0 day
Mus musculus [21] = experiment: Anti-NASH activity in CCl4-induced nonalcoholic steatohepatitis C57BL mouse assessed as reduction in triglyceride level at 60 mg/kg
Mus musculus [22] = experiment: Anti-NASH activity in CCl4-induced nonalcoholic steatohepatitis C57BL mouse assessed as reduction in liver fibrosis at 60 mg/kg checked in presence of 30 to 100 mg/kg JBP485 by sirius red staining based assay
Mus musculus [23] = experiment: Anti-NASH activity in CCl4-induced nonalcoholic steatohepatitis C57BL mouse assessed as reduction in liver fibrosis at 60 mg/kg by sirius red staining based assay
Mus musculus [24] = experiment: Anti-NASH activity in CCl4-induced nonalcoholic steatohepatitis C57BL mouse assessed as reduction in liver index at 60 mg/kg
Mus musculus [25] = experiment: Anti-NASH activity in CCl4-induced nonalcoholic steatohepatitis C57BL mouse assessed as reduction in LDH level at 100 mg/kg checked in presence of vitamin E
Mus musculus [26] = experiment: Anti-NASH activity in CCl4-induced nonalcoholic steatohepatitis C57BL mouse assessed as decrease in IL-2 expression at 30 mg/kg checked in presence of vitamin E by flow cytometry; details: time 14.0 day
Mus musculus [27] = experiment: Anti-NASH activity in CCl4-induced nonalcoholic steatohepatitis C57BL mouse assessed as reduction in steatosis at 100 mg/kg by H and E staining based assay
Mus musculus [28] = experiment: Anti-NASH activity in CCl4-induced nonalcoholic steatohepatitis C57BL mouse assessed as reduction in serum ALT level at 30 to 100 mg/kg checked in presence of vitamin E; details: dose 30-100 mg/kg
Mus musculus [29] = experiment: Anti-NASH activity in CCl4-induced nonalcoholic steatohepatitis C57BL mouse assessed as reduction in liver fibrosis at 100 mg/kg by sirius red staining based assay
Mus musculus [30] = experiment: Anti-NASH activity in CCl4-induced nonalcoholic steatohepatitis C57BL mouse assessed as reduction in serum AST level at 30 to 100 mg/kg checked in presence of vitamin E; details: dose 30-100 mg/kg
Mus musculus [31] = experiment: Anti-NASH activity in CCl4-induced nonalcoholic steatohepatitis C57BL mouse assessed as reduction in liver fibrosis at 30 to 100 mg/kg checked in presence of vitamin E by sirius red staining based assay; details: dose 30-100 mg/kg
Mus musculus [32] = experiment: Anti-NASH activity in CCl4-induced nonalcoholic steatohepatitis C57BL mouse assessed as reduction in triglyceride level at 100 mg/kg administered for 14 days; details: time 14.0 day
Mus musculus [33] = experiment: Anti-NASH activity in CCl4-induced nonalcoholic steatohepatitis C57BL mouse assessed as reduction in liver ballooning degeneration at 100 mg/kg by H and E staining based assay
Mus musculus [34] = experiment: Anti-NASH activity in CCl4-induced nonalcoholic steatohepatitis C57BL mouse assessed as reduction in steatosis at 30 to 100 mg/kg checked in presence of vitamin E by H and E staining based assay; details: dose 30-100 mg/kg
Mus musculus [35] = experiment: Anti-NASH activity in CCl4-induced nonalcoholic steatohepatitis C57BL mouse assessed as reduction in liver ballooning degeneration at 30 to 100 mg/kg checked in presence of vitamin E by H and E staining based assay; details: dose 30-100 mg/kg
Mus musculus [36] = experiment: Anti-NASH activity in CCl4-induced nonalcoholic steatohepatitis C57BL mouse assessed as reduction in liver index at 100 mg/kg
Mus musculus [37] = experiment: Anti-NASH activity in CCl4-induced nonalcoholic steatohepatitis C57BL mouse at 100 mg/kg by Oil red-O staining based assay
Mus musculus [38] = experiment: Anti-NASH activity in CCl4-induced nonalcoholic steatohepatitis C57BL mouse assessed as reduction in liver lobular inflammation at 30 to 100 mg/kg checked in presence of vitamin E by H and E staining based assay; details: dose 30-100 mg/kg
Mus musculus [39] = experiment: Anti-NASH activity in CCl4-induced nonalcoholic steatohepatitis C57BL mouse assessed as decrease in IFN expression at 100 mg/kg checked in presence of vitamin E by flow cytometry; details: time 14.0 day
Mus musculus [40] = experiment: Anti-NASH activity in CCl4-induced nonalcoholic steatohepatitis C57BL mouse assessed as reduction in liver index at 30 to 100 mg/kg checked in presence of 60 mg/kg vitamin E; details: dose 30-100 mg/kg
Mus musculus [41] = experiment: Anti-NASH activity in CCl4-induced nonalcoholic steatohepatitis C57BL mouse at 30 to 100 mg/kg checked in presence of vitamin E by Oil red-O staining based assay; details: dose 30-100 mg/kg
Mus musculus [42] = experiment: Anti-NASH activity in CCl4-induced nonalcoholic steatohepatitis C57BL mouse assessed as reduction in total cholesterol level at 100 mg/kg administered for 14 days; details: time 14.0 day
Mus musculus [43] = experiment: Anti-NASH activity in CCl4-induced nonalcoholic steatohepatitis C57BL mouse assessed as reduction in malondialdehyde level at 30 mg/kg checked in presence of vitamin E
Mus musculus [44] = experiment: Anti-NASH activity in CCl4-induced nonalcoholic steatohepatitis C57BL mouse assessed as reduction in liver lobular inflammation at 100 mg/kg by H and E staining based assay
Mus musculus [45] = experiment: Anti-NASH activity in CCl4-induced nonalcoholic steatohepatitis C57BL mouse assessed as decrease in IL-17A expression at 30 mg/kg checked in presence of vitamin E by flow cytometry; details: time 14.0 day
Mus musculus [46] = experiment: Anti-NASH activity in CCl4-induced nonalcoholic steatohepatitis C57BL mouse assessed as reduction in triglyceride level at 30 mg/kg checked in presence of vitamin E
Mus musculus [47] = experiment: Anti-NASH activity in CCl4-induced nonalcoholic steatohepatitis C57BL mouse assessed as reduction in malondialdehyde level at 100 mg/kg administered for 14 days; details: time 14.0 day
Mus musculus [48] = experiment: Anti-NASH activity in CCl4-induced nonalcoholic steatohepatitis C57BL mouse assessed as reduction in total cholesterol level at 30 mg/kg checked in presence of vitamin E
Mus musculus [49] = experiment: Anti-NASH activity in CCl4-induced nonalcoholic steatohepatitis C57BL mouse assessed as decrease in IFN expression at 100 mg/kg by flow cytometry; details: time 14.0 day
Mus musculus [50] = experiment: Anti-NASH activity in CCl4-induced nonalcoholic steatohepatitis C57BL mouse assessed as reduction in HYP content in liver at 100 mg/kg administered for 14 days; details: time 14.0 day
Mus musculus [51] = experiment: Anti-NASH activity in CCl4-induced nonalcoholic steatohepatitis C57BL mouse assessed as decrease in IL-2 expression at 100 mg/kg by flow cytometry; details: time 14.0 day
Mus musculus [52] = experiment: Anti-NASH activity in CCl4-induced nonalcoholic steatohepatitis C57BL mouse assessed as reduction in serum AST level at 100 mg/kg
Mus musculus [53] = experiment: Anti-NASH activity in CCl4-induced nonalcoholic steatohepatitis C57BL mouse assessed as reduction in serum ALT level at 100 mg/kg
Mus musculus [54] = experiment: Anti-NASH activity in CCl4-induced nonalcoholic steatohepatitis C57BL mouse assessed as decrease in IL-17A expression at 100 mg/kg by flow cytometry; details: time 14.0 day
Mus musculus [55] = experiment: Anti-NASH activity in CCl4-induced nonalcoholic steatohepatitis C57BL mouse assessed as reduction in LDH level at 100 mg/kg

Measured: Activity

VITAMIN E
active: Mus musculus [1] | Mus musculus [2] | Mus musculus [3] | Mus musculus [4] | Mus musculus [5] | Mus musculus [6] | Mus musculus [7] | Mus musculus [8] | Mus musculus [9] | Mus musculus [10] | Mus musculus [11] | Mus musculus [12] | Mus musculus [13] | Mus musculus [14] | Mus musculus [15] | Mus musculus [16] | Mus musculus [17] | Mus musculus [18] | Mus musculus [19] | Mus musculus [20] | Mus musculus [21] | Mus musculus [22] | Mus musculus [23] | Mus musculus [24]

O=C1N[C@@H](CO)C(=O)N2C[C@H](O)C[C@@H]12
active: Mus musculus [25] | Mus musculus [26] | Mus musculus [27] | Mus musculus [28] | Mus musculus [29] | Mus musculus [30] | Mus musculus [31] | Mus musculus [32] | Mus musculus [33] | Mus musculus [34] | Mus musculus [35] | Mus musculus [36] | Mus musculus [37] | Mus musculus [38] | Mus musculus [39] | Mus musculus [40] | Mus musculus [41] | Mus musculus [42] | Mus musculus [43] | Mus musculus [44] | Mus musculus [45] | Mus musculus [46] | Mus musculus [47] | Mus musculus [48]

Cc1c(C)c2c(c(C)c1OC(=O)CCC(=O)O[C@@H]1C[C@H]3C(=O)N[C@@H](CO)C(=O)N3C1)CC[C@@](C)(CCC[C@H](C)CCC[C@H](C)CCCC(C)C)O2
active: Mus musculus [27] | Mus musculus [29] | Mus musculus [49] | Mus musculus [50] | Mus musculus [51] | Mus musculus [32] | Mus musculus [52] | Mus musculus [33] | Mus musculus [36] | Mus musculus [37] | Mus musculus [53] | Mus musculus [42] | Mus musculus [44] | Mus musculus [54] | Mus musculus [47] | Mus musculus [55]
